Measured values: patent US20240158390A1, “OTHER HETEROAROMATIC COMPOUNDS HAVING ACTIVITY AGAINST RSV” (Janssen Sciences Ireland Unlimited Company, priority 2019, published 2024)

Assays:
rgRSV224 virus = test: Antiviral activity: rgRSV224 (GFP) replication in HeLa cells; format: cell-based; settings: human respiratory syncytial virus, 72 h, read-out: RSV HELA EC50 (μM)
Protocol: (§1) Black 384-well clear-bottom microtiter plates (Corning, Amsterdam, The Netherlands) were filled via acoustic drop ejection using the echo liquid handler (Labcyte, Sunnyvale, California). 200 nL of compound stock solutions (100% DMSO) were transferred to the assay plates. 9 serial 4-fold dilutions of compound were made, creating per quadrant the same compound concentration. The assay was initiated by adding 10 μL of culture medium to each well (RPMI medium without phenol red, 10% FBS-heat inactivated, 0.04% gentamycin (50 mg/mL). All addition steps are done by using a multidrop dispenser (Thermo Scientific, Erembodegem, Belgium). Next, rgRSV224 virus (MOI=1) diluted in culture medium was added to the plates. rgRSV224 virus is an engineered virus that includes an additional GFP gene (Hallak LK, Spillmann D, Collins PL, Peeples ME. Glycosaminoglycan sulfation requirements for respiratory syncytial virus infection; Journal of virology (2000), 74(22), 10508-13) and was in-licensed from the NIH (Bethesda, MD, USA). Finally, 20 μL of a HeLa cell suspension (3,000 cells/well) were plated. Medium, virus- and mock-infected controls were included in each test. The wells contain 0.05% DMSO per volume. Cells were incubated at 37° C. in a 5% CO2 atmosphere. Three days post-virus exposure, viral replication was quantified by measuring GFP expression in the cells by an in house developed MSM laser microscope (Tibotec, Beerse, Belgium). The EC50 was defined as the 50% inhibitory concentration for GFP expression. In parallel, compounds were incubated for three days in a set of white 384-well microtiter plates (Corning) and the cytotoxicity of compounds in HeLa cells was determined by measuring the ATP content of the cells using the ATPlite kit (Perkin Elmer, Zaventem, Belgium) according to the manufacturer's instructions. The CC50 was defined as the 50% concentration for cytotoxicity.

in vitro = format: cell-based; settings: human
Protocol: as §1

| SMILES | EC50 (rgRSV224 virus) [µM] | CC50 at 3 days (in vitro) [µM] |
| --- | --- | --- |
| C[C@@H]1c2ccccc2CCN1C(=O)c1cc(C2CC2)c2nc(-c3ccc(N4CC[C@H](C(=O)O)C4)cc3F)n(C)c2c1 [Compound 16, (3S)-1-(4-{4-Cyclopropyl-1-methyl-6-[(1R)-1-methyl-1,2,3,4-tetrahydroisoquinoline-2-carbonyl]-1H-1,3-benzodiazol-2-yl}-3-fluorophenyl)pyrrolidine-3-carboxylic acid] | 0.61 | 65.3 |
| C[C@@H]1c2ccccc2CCN1C(=O)c1cc(-c2ccccc2)c2cn(-c3ccc(N4C[C@H](O)[C@@H](O)C4)cc3F)nc2c1 [Compound 25, (2-(4-((3S,4S)-3,4-dihydroxypyrrolidin-1-yl)-2-fluorophenyl)-4-phenyl-2H-indazol-6-yl)((R)-1-methyl-3,4-dihydroisoquinolin-2 (1H)-yl)methanone] | 0.47 | 19.4 |
| C[C@@H]1c2ccccc2CCN1C(=O)c1cc(C2CC2)c2nc(-c3ccc(N4C[C@H](O)[C@@H](O)C4)cc3F)oc2n1 [Compound 2, (7-cyclopropyl-2-(4-((3 S,4S)-3,4-dihydroxypyrrolidin-1-yl)-2-fluorophenyl)oxazolo[5,4-b]pyridin-5-yl)((R)-1-methyl-3,4-dihydroisoquinolin-2(1H)-yl)methanone] | 0.02 | 26 |
| CCc1cc(C(=O)N2CCc3ccccc3[C@H]2C)cc2cc(-c3ccc(N4C[C@H](O)[C@@H](O)C4)cc3F)oc12 [Compound 3, (2-(4-((3S,4S)-3,4-dihydroxypyrrolidin-1-yl)-2-fluorophenyl)-7-ethylbenzofuran-5-yl)((R)-1-methyl-3,4-dihydroisoquinolin-2 (1H)-yl)methanone] | 0.25 | 24.2 |
| C[C@@H]1c2ccccc2CCN1C(=O)c1cc(C2CC2)c2nc(-c3ccc(N4CC[C@H](C(N)=O)C4)cc3F)n(C)c2c1 [Compound 17, (3S)-1-(4-{4-Cyclopropyl-1-methyl-6-[(1R)-1-methyl-1,2,3,4-tetrahydroisoquinoline-2-carbonyl]-1H-1,3-benzodiazol-2-yl}-3-fluorophenyl)pyrrolidine-3-carboxamide] | 0.17 | 39.6 |
| C[C@@H]1c2ccccc2CCN1C(=O)c1cc(C2CC2)c2c(n1)nc(-c1ccc(C3C[C@H]3C(=O)O)cc1F)n2C (relative stereo) [Compound 13, (Trans)-2-(4-(7-cyclopropyl-1-methyl-5-((R)-1-methyl-1,2,3,4-tetrahydroisoquinoline-2-carbonyl)-1H-imidazo[4,5-b]pyridin-2-yl)-3-fluorophenyl)cyclopropane-1-carboxylic acid] | 22.4 | > 100 |
| C[C@@H]1c2ccccc2CCN1C(=O)c1cc(C2CC2)c2nc(-c3ccc(NC(=O)N4CC[C@@H](O)C4)cc3F)n(C)c2c1 [Compound 18, (3R)-N-(4-{4-Cyclopropyl-1-methyl-6-[(1R)-1-methyl-1,2,3,4-tetrahydroisoquinoline-2-carbonyl]-1H-1,3-benzodiazol-2-yl}-3-fluorophenyl)-3-hydroxypyrrolidine-1-carboxamide] | 0.14 | 51.6 |
| CCc1cc(C(=O)N2CCc3ccccc3[C@H]2C)nc2oc(-c3ccc(NC(=O)N4CC[C@@H](O)C4)cc3F)nc12 [Compound 1, (R)-N-(4-(7-ethyl-5-((R)-1-methyl-1,2,3,4-tetrahydroisoquinoline-2-carbonyl)oxazolo[5,4-b]pyridin-2-yl)-3-fluorophenyl)-3-hydroxypyrrolidine-1-carboxamide] | 0.01 | > 25 |
| C[C@@H]1c2ccccc2CCN1C(=O)c1cc(C2CC2)c2nc(-c3ccc(C4C[C@@H]4C(N)=O)cc3F)n(C)c2c1 (relative stereo) [Compound 15, Cis-2-(4-{4-cyclopropyl-1-methyl-6-[(1R)-1-methyl-1,2,3,4-tetrahydroisoquinoline-2-carbonyl]-1H-1,3-benzodiazol-2-yl}-3-fluorophenyl)cyclopropane-1-carboxamide] | 0.69 | 50.4 |
| C[C@@H]1c2ccccc2CCN1C(=O)c1cc(C2CC2)c2cc(-c3ccc(N4C[C@H](O)[C@@H](O)C4)cc3F)sc2n1 [Compound 4, (4-cyclopropyl-2-(4-((3 S,4S)-3,4-dihydroxypyrrolidin-1-yl)-2-fluorophenyl)thieno[2,3-b]pyridin-6-yl)((R)-1-methyl-3,4-dihydroisoquinolin-2(1H)-yl)methanone] | 0.14 | 14.3 |
| C[C@@H]1c2ccccc2CCN1C(=O)c1cc(C2CC2)c2cc(-c3ccc([C@H]4C[C@@H]4C(=O)O)cc3F)[nH]c2c1 [Compound 8, (1 S,2S)-2-(4-(4-cyclopropyl-6-((R)-1-methyl-1,2,3,4-tetrahydroisoquinoline-2-carbonyl)-1H-indol-2-yl)-3-fluorophenyl)cyclopropane-1-carboxylic acid] | 2.04 | 20.9 |
| C[C@@H]1c2ccccc2CCN1C(=O)c1cc(C2CC2)c2nc(-c3ccc(NC(=O)N4CC[C@@H](O)C4)cc3F)oc2c1 [Compound 23, (R)-N-(4-(4-cyclopropyl-6-((R)-1-methyl-1,2,3,4-tetrahydroisoquinoline-2-carbonyl)benzo[d]oxazol-2-yl)-3-fluorophenyl)-3-hydroxypyrrolidine-1-carboxamide] | 0.05 | 47.8 |
| C[C@@H]1c2ccccc2CCN1C(=O)c1cc(C2CC2)c2nc(-c3ccc(N4CC[C@H](C(=O)O)C4)cc3F)n(C)c2n1 [Compound 12, Methyl (3S)-1-(4-{7-cyclopropyl-3-methyl-5-[(1R)-1-methyl-1,2,3,4-tetrahydroisoquinoline-2-carbonyl]-3H-imidazo[4,5-b]pyridin-2-yl}-3-fluorophenyl)pyrrolidine-3-carboxylic acid] | 0.43 | 63 |
| C[C@@H]1c2ccccc2CCN1C(=O)c1cc(C2CC2)c2nc(-c3ccc(C4C[C@@H]4C(=O)O)cc3F)n(C)c2c1 (relative stereo) [Compound 14, Cis-2-(4-{4-cyclopropyl-1-methyl-6-[(1R)-1-methyl-1,2,3,4-tetrahydroisoquinoline-2-carbonyl]-1H-1,3-benzodiazol-2-yl}-3-fluorophenyl)cyclopropane-1-carboxylic acid] | 9.05 | > 100 |
| C[C@@H]1c2ccccc2CCN1C(=O)c1cc(C2CC2)c2nn(-c3ccc(N)cc3F)cc2c1 [Compound 19, 4-{7-Cyclopropyl-5-[(1R)-1-methyl-1,2,3,4-tetrahydroisoquinoline-2-carbonyl]-2H-indazol-2-yl}-3-fluoroaniline] | 0.16 | 55.2 |
| C[C@@H]1c2ccccc2CCN1C(=O)c1cc(C2CC2)c2nc(-c3ccc(N4CC[C@H](C(N)=O)C4)cc3F)oc2c1 [Compound 22, (3S)-1-(4-{4-Cyclopropyl-6-[(1R)-1-methyl-1,2,3,4-tetrahydroisoquinoline-2-carbonyl]-1,3-benzoxazol-2-yl}-3-fluorophenyl)pyrrolidine-3-carboxamide] | 0.01 | 54.8 |
| C[C@@H]1c2ccccc2CCN1C(=O)c1cc(C2CC2)c2nn(-c3ccc(NC(=O)N4CC[C@H](O)C4)cc3F)cc2c1 [Compound 20, (3S)-N-(4-{7-Cyclopropyl-5-[(1R)-1-methyl-1,2,3,4-tetrahydroisoquinoline-2-carbonyl]-2H-indazol-2-yl}-3-fluorophenyl)-3-hydroxypyrrolidine-1-carboxamide] | 0.06 | 54.4 |
| C[C@@H]1c2ccccc2CCN1C(=O)c1cc(C2CC2)c2nn(-c3ccc(NC(=O)N4CC[C@@H](O)C4)cc3F)cc2n1 [Compound 7, (R)-N-(4-(7-cyclopropyl-5-((R)-1-methyl-1,2,3,4-tetrahydroisoquinoline-2-carbonyl)-2H-pyrazolo[4,3-b]pyridin-2-yl)-3-fluorophenyl)-3-hydroxypyrrolidine-1-carboxamide] | 0.05 | 47.6 |
| C[C@@H]1c2ccccc2CCN1C(=O)c1cc(C2CC2)c2nc(-c3ccc(C4CC4C(=O)O)cc3F)n(C)c2n1 (stereo in doubt) [Compound 11, Trans 2-(4-{7-Cyclopropyl-3-methyl-5-[(1R)-1-methyl-1,2,3,4-tetrahydroisoquinoline-2-carbonyl]-3H-imidazo[4,5-b]pyridin-2-yl}-3-fluorophenyl)cyclopropane-1-carboxylic acid] | 0.52 | 76.8 |
| C[C@@H]1c2ccccc2CCN1C(=O)c1cc(C2CC2)c2nc(-c3ccc(NC(=O)N4CC[C@@H](O)C4)cc3F)sc2c1 [Compound 24, (R)-N-(4-(4-cyclopropyl-6-((R)-1-methyl-1,2,3,4-tetrahydroisoquinoline-2-carbonyl)benzo[d]thiazol-2-yl)-3-fluorophenyl)-3-hydroxypyrrolidine-1-carboxamide] | 0.17 | 54 |
